Earlier results as cited in patent US11419915B2, “Compositions and methods for the treatment of malnutrition” (VitalneXt B.V., priority 2015, dated 2022).

Conditions: dose of 80 mg/kg bodyweight ursolic acid from an ethanolic extract of Sambucus chinensis; rat plasma

- oral bioavailability: 0.6%
SMILES: C[C@H]1[C@H](C)CC[C@]2(C(=O)O)CC[C@]3(C)C(=CC[C@@H]4[C@@]5(C)CC[C@H](O)C(C)(C)[C@@H]5CC[C@]43C)[C@H]12 [ursolic acid, 3-beta-3-hydroxy-urs-12-ene-28-oic-acid]
